{
  "source": "patent US7867948B2",
  "about": "“Use of guanidine compounds as physiological strengthening agents in the form of nutritional supplements, animal feed additives, in cosmetic preparations and as plant stimulants” (Alzchem Trostberg GmbH, priority 2004, dated 2011)",
  "key": {"rats": {"test_system": "rats", "settings": "experiments of GB 1 468 998; cited from earlier work"}, "[1]": {"settings": "after administration; Arzneimittelforschung 1979, 29 (9A) 1477-79; cited from earlier work"}, "[2]": {"test_system": "chickens raised for market", "assay": "Feed for chickens raised for market (feed additive trial)", "type": "in vivo", "parameters": "dose or concentration left out as unconfirmed", "settings": "0.2 wt.-% added to air-dried food", "description": "2. Animal Feed Additive • 2.1 A formulation consisting of 5,000 mg creatinol-O -phosphate and 5,000 mg inulin was added to a typical formula for feed pellets as a food supplement for horses. • 2.2 A formulation consisting of 7,000 mg creatinol sulfate, 750 mg carnitine tartrate, 100 mg sucrose stearate, 160 mg talc, and 1,090 mg fructose was added to the base mixture for making dog biscuits. • 2.3 As a master batch, the following formulation was added to a regular commercial canned cat food mixture: 3,000 mg creatinol sulfate, 3,000 mg creatine, 40 mg magnesium stearate, 25 mg carboxymethylcellulose and 135 mg lactose. • 2.4 Feed for chickens raised for market\nIn addition the feed consumption was about 2 to 3% less than in former feeding methods."}},
  "data": [
    {"smiles": "CN(CCO)C(=N)N.NC(CC(=O)O)C(=O)O", "note": "(stereo not shown) [creatinol aspartate]", "values": [
      {"measurement": "swimming activity increased", "setting": "rats", "result": 30, "unit": "%"}
    ]},
    {"smiles": "CN(CCOP(=O)(O)O)C(=N)N", "note": "[creatinol-O-phosphate]", "values": [
      {"measurement": "creatinine levels in the urine", "setting": "[1]", "result": "increase"},
      {"measurement": "meat quality", "setting": "[2]; 41 days feeding time", "result": "improved quality"},
      {"measurement": "increase in the final weight versus former feeding methods without addition of creatinol", "setting": "[2]; after 41 days feeding time", "result": 4, "unit": "%"}
    ]}
  ]
}
